Source: patent US8680272B2, “3-arylethynyl substituted quinazolinone compounds” (Council of Scientific & Industrial Research, priority 2011, dated 2014)

Key:
[1] = test system: PC-3; experiment: Anticancer activity, SRB assay, prostate cell line PC-3; type: cell-based, human; settings: Prostate PC-3, 48 h continuous drug exposure, —^b means GI50 values not attained at the concentrations used; for GI50: Homo sapiens, read-out: Growth Inhibition GI50
Description: (§1) Some of biological activity studies were carried out at the National Cancer Institute (NCI), Maryland, USA.
(§2) The compounds were evaluated for anticancer activity against sixty human cancer cells derived from nine cancer types (leukemia cell line, non-small-cell lung cell line, colon cell line, CNS cell line, melanoma cell line, ovarian cell line, prostate cell line, renal cell line and breast cancer cell line) as shown in Table 1. For each compound, dose response curves for each cell line were measured at a minimum of five concentrations at 10 fold dilutions. A protocol of 48 h continuous drug exposure was used and a sulforhodamine B (SRB) protein assay was used to estimate cell viability or growth.

[2] = test system: HOP-62; experiment: Anticancer activity, SRB assay, non-small lung cell line HOP-62; type: cell-based, human; settings: Non-small lung HOP-62, 48 h continuous drug exposure, —^b means GI50 values not attained at the concentrations used; for GI50: Homo sapiens, read-out: Growth Inhibition GI50
Description: as §1, §2

[3] = test system: OVCAR-5; experiment: Anticancer activity, SRB assay, ovarian cell line OVCAR-5; type: cell-based, human; settings: Ovarian OVCAR-5, 48 h continuous drug exposure, —^b means GI50 values not attained at the concentrations used; for GI50: Homo sapiens, read-out: Growth Inhibition GI50
Description: as §1, §2

[4] = test system: two prostate cancer cell line (PC-3, DU-145); experiment: Anticancer activity, SRB assay, prostate panel; type: cell-based, human; settings: for GI50: Homo sapiens, DU-145, two prostate cancer cell line, exposure period of at least 48 h, read-out: GI50 (range over the panel); for mean graph midpoint values (MG_MID) of log10 TGI (Log10TGI50) / mean graph midpoint values (MG_MID) of Log10LC50 / mean graph midpoint values (MG_MID) of Log10GI50: Prostate; for mean graph midpoint values (MG_MID) of log10 TGI (Log10TGI50): log value of concentration of the compound resulting in total inhibition of net cell growth; for mean graph midpoint values (MG_MID) of Log10LC50: log value of the concentration of compounds leading to 50% net cell death; for mean graph midpoint values (MG_MID) of Log10GI50: log values of concentration in mol/L causing 50% inhibition of net cell growth
Description: as §1, §2

[5] = test system: OVCAR-8; experiment: Anticancer activity, SRB assay, ovarian cell line OVCAR-8; type: cell-based, human; settings: Ovarian OVCAR-8, 48 h continuous drug exposure, —^b means GI50 values not attained at the concentrations used; for GI50: Homo sapiens, read-out: Growth Inhibition GI50
Description: as §1, §2

[6] = test system: six breast cancer cell line (MCF-7, MDA-MB-231/ATCC, HS 578T, TD-47D, MDA-MB-468 and BT-549); experiment: Anticancer activity, SRB assay, breast panel; type: cell-based, human; settings: for mean graph midpoint values (MG_MID) of log10 TGI (Log10TGI50) / mean graph midpoint values (MG_MID) of Log10LC50 / mean graph midpoint values (MG_MID) of Log10GI50: Breast; for mean graph midpoint values (MG_MID) of log10 TGI (Log10TGI50): log value of concentration of the compound resulting in total inhibition of net cell growth; for mean graph midpoint values (MG_MID) of Log10LC50: log value of the concentration of compounds leading to 50% net cell death; for mean graph midpoint values (MG_MID) of Log10GI50: log values of concentration in mol/L causing 50% inhibition of net cell growth; for GI50: Homo sapiens, six breast cancer cell line, exposure period of at least 48 h, read-out: GI50 (range over the panel)
Description: as §1, §2

[7] = test system: SNB-75; experiment: Anticancer activity, SRB assay, CNS cell line SNB-75; type: cell-based, human; settings: CNS SNB-75, 48 h continuous drug exposure, —^b means GI50 values not attained at the concentrations used; for GI50: Homo sapiens, read-out: Growth Inhibition GI50
Description: as §1, §2

[8] = test system: SR; experiment: Anticancer activity, SRB assay, leukemia cell line SR; type: cell-based; settings: Homo sapiens, 48 h continuous drug exposure, read-out: Growth Inhibition GI50
Description: as §1, §2

[9] = test system: MALME-3M; experiment: Anticancer activity, SRB assay, melanoma cell line MALME-3M; type: cell-based; settings: Homo sapiens; Melanoma MALME-3M; 48 h continuous drug exposure; read-out: Growth Inhibition GI50
Description: as §1, §2

[10] = test system: HCC-2998; experiment: Anticancer activity, SRB assay, colon cell line HCC-2998; type: cell-based, human; settings: Colon HCC-2998, 48 h continuous drug exposure, —^b means GI50 values not attained at the concentrations used; for GI50: Homo sapiens, read-out: Growth Inhibition GI50
Description: as §1, §2

[11] = test system: NCI/ADR-RES; experiment: Anticancer activity, SRB assay, ovarian cell line NCI/ADR-RES; type: cell-based, human; settings: Ovarian NCl/ADR-RES, 48 h continuous drug exposure, —^b means GI50 values not attained at the concentrations used; for GI50: Homo sapiens, NCI/ADR-RES, read-out: Growth Inhibition GI50
Description: as §1, §2

[12] = test system: ACHN; experiment: Anticancer activity, SRB assay, renal cell line ACHN; type: cell-based, human; settings: 48 h continuous drug exposure, —^b means GI50 values not attained at the concentrations used; for GI50: Homo sapiens, read-out: Growth Inhibition GI50
Description: as §1, §2

[13] = test system: EKVX; experiment: Anticancer activity, SRB assay, non-small lung cell line EKVX; type: cell-based; settings: Homo sapiens, 48 h continuous drug exposure, read-out: Growth Inhibition GI50
Description: as §1, §2

[14] = test system: OVCAR-3; experiment: Anticancer activity, SRB assay, ovarian cell line OVCAR-3; type: cell-based; settings: Homo sapiens; Ovarian OVCAR-3; 48 h continuous drug exposure; read-out: Growth Inhibition GI50
Description: as §1, §2

[15] = test system: CCRF-CEM; experiment: Anticancer activity, SRB assay, leukemia cell line CCRF-CEM; type: cell-based, human; settings: 48 h continuous drug exposure, —^b means GI50 values not attained at the concentrations used; for GI50: Homo sapiens, read-out: Growth Inhibition GI50
Description: as §1, §2

[16] = test system: M14; experiment: Anticancer activity, SRB assay, melanoma cell line M14; type: cell-based; settings: Homo sapiens, 48 h continuous drug exposure, read-out: Growth Inhibition GI50
Description: as §1, §2

[17] = test system: RPMI-8226; experiment: Anticancer activity, SRB assay, leukemia cell line RPMI-8226; type: cell-based; settings: Homo sapiens; Leukemia RPMI-8226; 48 h continuous drug exposure; read-out: Growth Inhibition GI50
Description: as §1, §2

[18] = test system: COLO 205; experiment: Anticancer activity, SRB assay, colon cell line COLO 205; type: cell-based; settings: Homo sapiens; Colon COLO 205; 48 h continuous drug exposure; read-out: Growth Inhibition GI50
Description: as §1, §2

[19] = test system: A498; experiment: Anticancer activity, SRB assay, renal cell line A498; type: cell-based, human; settings: 48 h continuous drug exposure, —^b means GI50 values not attained at the concentrations used; for GI50: Homo sapiens, read-out: Growth Inhibition GI50
Description: as §1, §2

[20] = test system: RXF 393; experiment: Anticancer activity, SRB assay, renal cell line RXF 393; type: cell-based, human; settings: Renal RXF 393; 48 h continuous drug exposure; —^b means GI50 values not attained at the concentrations used
Description: as §1, §2

Row | Compound | GI50 [1] | GI50 [2] | GI50 [3] | GI50 [4] | mean graph midpoint values (MG_MID) of log10 TGI (Log10TGI50) [4] | mean graph midpoint values (MG_MID) of Log10LC50 [4] | mean graph midpoint values (MG_MID) of Log10GI50 [4] | GI50 [5] | mean graph midpoint values (MG_MID) of log10 TGI (Log10TGI50) [6] | mean graph midpoint values (MG_MID) of Log10LC50 [6] | mean graph midpoint values (MG_MID) of Log10GI50 [6] | GI50 [6] | GI50 [7] | GI50 [8] | GI50 [9] | GI50 [13] | GI50 [14] | GI50 [16] | GI50 [17] | GI50 [18] | other results
1 | Cc1cc(C#Cc2ccccc2)ccc1-n1c(/C=C/c2ccc(O)cc2)nc2ccccc2c1=O [Compound 4b, (E)-2-(4-Hydroxystyryl)-3-(2-methyl-4-(phenylethynyl)phenyl)quinazolin-4(3H)-one] | 3.24 µM | 13.1 µM | 4.59 µM | 3.24 to 4.87 µM | >−4.00 | >−4.00 | −5.40 mol/L | 3.98 µM | −4.58 | >−4.00 | −5.54 mol/L | 2.02 to 3.89 µM | 3.66 µM | 2.45 µM | 2.12 µM | 2.43 µM | 3.6 µM | 3.26 µM | 2.33 µM | 1.99 µM | GI50 [10]: 2.35 µM; GI50 [11]: 3.09 µM; GI50 [12]: 2.46 µM; GI50 [15]: 3.26 µM; GI50 [19]: 1.56 µM
2 | Cc1cc(C#Cc2ccccc2)ccc1-n1c(/C=C/c2cc(O)ccc2O)nc2ccccc2c1=O [Compound 4c, (E)-2-(2,5-Dihydroxystyryl)-3-(2-methyl-4-(phenylethynyl)phenyl)quinazolin-4(3H)-one] | 2.19 µM | 1.71 µM | 1.39 µM | 0.419 to 2.19 µM | −5.43 | −4.68 | −6.17 mol/L | 1.94 µM | −5.39 | −4.66 | −5.84 mol/L | 1.14 to 1.61 µM | 1.3 µM | 1.1 µM | 1.5 µM | 1.24 µM | 1.49 µM | 1.54 µM | 1.26 µM | 1.48 µM | GI50 [10]: 1.36 µM; GI50 [11]: 2.06 µM; GI50 [12]: 1.44 µM; GI50 [15]: 1.54 µM; GI50 [19]: 0.37 µM
3 | COc1ccc2cc(C#Cc3ccc(-n4c(/C=C/c5cc(OC)c(OC)c(OC)c5)nc5ccccc5c4=O)c(C)c3)ccc2c1 [Compound 6l, (E)-3-(4-((6-Methoxynaphthalen-2-yl)ethynyl)-2-methylphenyl)-2-(3,4,5-trimethoxystyryl)quinazolin-4(3H)-one] |  |  |  |  | >−4.00 | >−4.00 | −4.00 mol/L |  | >−4.00 | >−4.00 | −4.51 mol/L | 3.8 to 63.8 µM |  | 0.395 µM | 42.6 µM | 24.1 µM | 19.3 µM | 12.7 µM | 0.821 µM | 6.96 µM | Growth Inhibition GI50 [1]: —^b; Growth Inhibition GI50 [2]: —^b; Growth Inhibition GI50 [3]: —^b; Growth Inhibition GI50 [5]: —^b; Growth Inhibition GI50 [7]: —^b; Growth Inhibition GI50 [10]: —^b; Growth Inhibition GI50 [11]: —^b; Growth Inhibition GI50 [12]: —^b; Growth Inhibition GI50 [15]: —^b; Growth Inhibition GI50 [20]: —^b; Growth Inhibition GI50 [19]: —^b
